The text below walks through data of patent US6300344A, “Heterocyclic compounds” (Fujisawa Pharmaceutical Co., Ltd., priority 1995, dated 2001).

Where a name gives a salt, the structure may show the parent alone.

The test system of the test is human platelet aggregation induced by ADP. Briefly: Inhibition of human platelet aggregation induced by ADP. The format is cell-based. The note with it: test compound 1.0 × 10^-7 M; human platelet rich plasma; ADP 2.5 μM final; 37° C.; mean ± S.E. The procedure: Inhibition of human platelet aggregation induced by ADP
The citrate blood was centrifuged at 150 ×g for 10 minutes and the platelet rich plasma (PRP) was removed. The remaining blood was centrifuged for a further 10 minutes at 1500 ×g to prepare the platelet poor plasma (PPP), which was used as a reference for platelet aggregation. […] 25 μl of sample solution and 225 μl of PRP were mixed and stirred at 1000 rpm for 2 minutes at 37° C. Aggregation was induced by ADP solution at the final concentration of 2.5 μM.

`O=C(O)COc1cccc(CC2CCCCC=C2c2nc(-c3ccccc3)c(-c3ccccc3)o2)c1` (centres unmarked) [Test Compound (1), Sodium [3-[[2-(4,5-diphenyloxazol-2-yl)-2-cyclohepten-1-yl]methyl]phenoxy]acetate] registered an inhibition at 0.1 µM of 88 ± 0.5%.
The value for `O=C(O)COc1cccc2c1CCC[C@H]2N1CCC[C@@H]1c1nc(-c2ccccc2)c(-c2ccccc2)o1` [Test Compound (2), Sodium salt of (1R)-1-((2R)-2-(4,5-diphenyloxazol-2-yl)pyrrolidin-1-yl]-5-carboxymethoxy-1,2,3,4-tetrahydronaphthalene] was 85 ± 7.6%.

As usually defined, the inhibition is how much of the control response was suppressed. A high value points to a response far below the control.
